The subject of data set [1] is K562 (chronic myelogenous leukemia). Briefly: Effect on tumor cell lines (Latham assay), K562. It is filed as cell-based. As to conditions: Homo sapiens; K562 cells, examined 96 hours after treatment; read-out: Potencies (IC50) K 562. On the procedure: (§1) The plated cells were treated 24 hours later with a compound of the invention dissolved in DMSO at multiple concentrations ranging from 0.01 μM to 100 μM. […] When necessary, the total number of viable cells was determined by trypsinizing the wells and counting the number of viable cells, as determined by trypan blue exclusion, using a hemacytometer.

Data set [2] concerns DU145 (prostate cancer). Nature of the data set: Effect on tumor cell lines (Latham assay), DU145. It is filed as cell-based. As to conditions: Homo sapiens, DU-145; DU145 cells, examined 96 hours after treatment; read-out: Potencies (IC50) DU 145. On the procedure: as §1

SMILES strings stand for the structures.

As usually defined, the IC50 is the concentration needed to halve the response being measured. A word on the melting point: it is the temperature, or range, at which the solid turns liquid. `O=c1c(S(=O)(=O)c2ccc(Cl)cc2)cc2cnc(Nc3ccc4[nH]ccc4c3)nc2n1C1CCCCC1` [Example 51, 2-(1H-indol-5-ylamino)-6-(4-chlorophenylsulfonyl)-8-cyclohexylpyrido[2,3-d]pyrimidin-7(8H)-one]: the melting point lay within 305 to 307 °C. Moreover, the 50% inhibitory concentration (IC50) in data set [1] fell in the range of 10 to 25 µM. For the same compound, the IC50 in data set [2] fell in the range of 25 to 50 µM.

Compound `CC(=O)N1CCN(c2ncc3cc(S(=O)(=O)c4ccc(Cl)cc4)c(=O)n(C)c3n2)CC1` [Example 8, 6-(4-chlorophenylsulfonyl)-2-(4-acetylpiperazin-1-yl)-8-methylpyrido[2,3-d]pyrimidin-7(8H)-one] showed a melting point of 264 to 268 °C. The IC50 in data set [1] lay in the range of 50 to 100 µM. The half-maximal inhibitory concentration (IC50) in data set [2] fell in the range of 50 to 100 µM.

With `Cc1ccc(S(=O)(=O)c2cc3cnc(Nc4cccc5[nH]ccc45)nc3n(C)c2=O)cc1` [Example 16, 2-(1H-indol-4-ylamino)-8-methyl-6-tosylpyrido[2,3-d]pyrimidin-7(8H)-one], the melting point was in the range of 295 to 300 °C. Besides, the 50% inhibitory concentration (IC50) in data set [1] was 1 to 10 µM. The IC50 in data set [2] was 1 to 10 µM.

`CSc1ncc2cc(S(=O)(=O)c3ccccc3)c(=O)n(C3CCCC3)c2n1` [Example 67, 8-cyclopentyl-2-(methylsulfanyl)-6-(phenylsulfonyl)pyrido[2,3-d]pyrimidin-7(8H)-one] showed a melting point of 184 to 185 °C. Also, the IC50 in data set [1] lay in the range of 50 to 100 µM. Moreover, the IC50 in data set [2] lay within 50 to 100 µM.

Compound `CN1CCN(c2ccc(Nc3ncc4cc(S(=O)(=O)c5ccc(Cl)cc5)c(=O)n(C5CCCCC5)c4n3)cc2)CC1` [Example 50, 2-(4-(4-methylpiperazin-1-yl)phenylamino)-6-(4-chlorophenylsulfonyl)-8-cyclohexylpyrido[2,3-d]pyrimidin-7(8H)-one] had a melting point of 259 to 260 °C. Moreover, the half-inhibitory concentration (IC50) in data set [1] was in the range of 1 to 10 µM. For the same compound, in data set [2], the 50% inhibitory concentration (IC50) is 1 to 10 µM.

Consider `CC(C)(C)OC(=O)N1CCN(c2ccc(Nc3ncc4cc(S(=O)(=O)c5ccccc5)c(=O)n(C5CCCC5)c4n3)nc2)CC1` [Example 65, 2-(5-(4-tert-butoxycarbonylpiperazin-1-yl)pyridin-2-ylamino)-8-cyclopentyl-6-(phenylsulfonyl)pyrido[2,3-d]pyrimidin-7(8H)-one], for which the melting point was in the range of 115 to 116 °C. The IC50 in data set [1] is 10 to 25 µM. Also, in data set [2], the IC50 was > 100 µM.

`Cc1ccc(S(=O)(=O)c2cc3cnc(Nc4cnc5[nH]ccc5c4)nc3n(C)c2=O)cc1` [Example 19, 2-(1H-pyrrolo[2,3-b]pyridin-5-ylamino)-8-methyl-6-tosylpyrido[2,3-d]pyrimidin-7(8H)-one] registered a melting point of 252 to 255 °C. For the same compound, in data set [1], the 50% inhibitory concentration (IC50) is 1 to 10 µM. Also, in data set [2], the half-maximal inhibitory concentration (IC50) lay in the range of 1 to 10 µM.

`CN1CCN(c2ccc(Nc3ncc4cc(S(=O)(=O)c5ccccc5)c(=O)n(C5CCCC5)c4n3)cc2)CC1` [Example 64, 2-(4-(4-methylpiperazin-1-yl)phenylamino)-8-cyclopentyl-6-(phenylsulfonyl)pyrido[2,3-d]pyrimidin-7(8H)-one]: the IC50 in data set [1] is 1 to 10 µM; in data set [2], < 1 µM.

The compound `O=c1c(S(=O)(=O)c2ccccc2)cc2cnc(N3CCN(c4ccc(C(F)(F)F)cn4)CC3)nc2n1C1CCCC1` [Example 57, 8-cyclopentyl-2-(4-(5-(trifluoromethyl)pyridin-2-yl)piperazin-1-yl)-6-(phenylsulfonyl)pyrido[2,3-d]pyrimidin-7(8H)-one] showed a melting point of 258 to 259 °C. Further, the IC50 in data set [1] lay in the range of 50 to 100 µM. Also, the IC50 in data set [2] was 25 to 50 µM.

As for `COc1ccc(Nc2ncc3cc(S(=O)(=O)c4ccc(Cl)cc4)c(=O)n(C)c3n2)cc1` [Example 4, 6-(4-chlorophenylsulfonyl)-2-(4-methoxyphenylamino)-8-methylpyrido[2,3-d]pyrimidin-7(8H)-one], the melting point was in the range of 286 to 290 °C. Moreover, the IC50 in data set [1] was in the range of 10 to 25 µM. Besides, the IC50 in data set [2] fell in the range of 25 to 50 µM.

With `Cn1c(=O)c(S(=O)(=O)c2ccc(F)c(Cl)c2)cc2cnc(Nc3ccc4c(c3)CC(=O)N4)nc21` [Example 36, 2-(2-oxoindolin-5-ylamino)-6-(3-chloro-4-fluorophenylsulfonyl)-8-methylpyrido[2,3-d]pyrimidin-7(8H)-one], the IC50 in data set [1] and in data set [2] was 10 to 25 µM each time.

Turning to `Cn1c(=O)c(S(=O)(=O)c2ccccc2)cc2cnc(Nc3ccc4ncccc4c3)nc21` [Example 23, 8-methyl-6-(phenylsulfonyl)-2-(quinolin-6-ylamino)pyrido[2,3-d]pyrimidin-7(8H)-one], the melting point fell in the range of 348 to 350 °C. The IC50 in data set [1] was > 100 µM. Further, the IC50 in data set [2] lay in the range of 50 to 100 µM.

Compound `Cn1c(=O)c(S(=O)(=O)c2ccccc2)cc2cnc(Nc3cnc4[nH]ccc4c3)nc21` [Example 22, 2-(1H-pyrrolo[2,3-b]pyridin-5-ylamino)-8-methyl-6-(phenylsulfonyl)pyrido[2,3-d]pyrimidin-7(8H)-one] gave a melting point of 280 to 284 °C. Besides, in data set [1], the 50% inhibitory concentration (IC50) was < 1 µM. Moreover, the IC50 in data set [2] is < 1 µM.

Turning to `Cn1c(=O)c(S(=O)(=O)c2ccc(Cl)cc2)cc2cnc(Nc3cnc4[nH]ccc4c3)nc21` [Example 32, 2-(1H-pyrrolo[2,3-b]pyridin-5-ylamino)-6-(4-chlorophenylsulfonyl)-8-methylpyrido[2,3-d]pyrimidin-7(8H)-one], the melting point lay within 296 to 298 °C. Also, the IC50 in data set [1] lay in the range of 1 to 10 µM. For the same compound, the IC50 in data set [2] was in the range of 1 to 10 µM.

For the compound `Cn1c(=O)c(S(=O)(=O)c2ccc(F)c(Cl)c2)cc2cnc(Nc3cccc4[nH]ccc34)nc21` [Example 34, 2-(1H-indol-4-ylamino)-6-(3-chloro-4-fluorophenylsulfonyl)-8-methylpyrido[2,3-d]pyrimidin-7(8H)-one], the melting point was in the range of 315 to 320 °C. For the same compound, the half-inhibitory concentration (IC50) in data set [1] was in the range of 50 to 100 µM. In addition, in data set [2], the IC50 lay in the range of 50 to 100 µM.

`Cc1ccc(S(=O)(=O)c2cc3cnc(Nc4ccc5cc[nH]c5c4)nc3n(C)c2=O)cc1` [Example 28, 2-(1H-indol-6-ylamino)-8-methyl-6-tosylpyrido[2,3-d]pyrimidin-7(8H)-one] returned a melting point of 334 to 336 °C. Besides, the concentration for half-maximal inhibition (IC50) in data set [1] lay in the range of 10 to 25 µM. Also, the concentration for half-maximal inhibition (IC50) in data set [2] lay in the range of 10 to 25 µM.

With `COc1cc(Nc2ncc3cc(S(=O)(=O)c4ccccc4)c(=O)n(C4CCCC4)c3n2)cc(OC)c1OC` [Example 62, 2-(3,4,5-trimethoxyphenylamino)-8-cyclopentyl-6-(phenylsulfonyl)pyrido[2,3-d]pyrimidin-7(8H)-one], the melting point lay in the range of 119 to 120 °C. Further, in data set [1], the IC50 was in the range of 1 to 10 µM. Also, the IC50 in data set [2] fell in the range of 1 to 10 µM.

Compound `Cn1c(=O)c(S(=O)(=O)c2ccc(C(=O)O)cc2)cc2cnc(Nc3ccc4[nH]ccc4c3)nc21` [Example 37, 4-(2-(1H-indol-5-ylamino)-7,8-dihydro-8-methyl-7-oxopyrido[2,3-d]pyrimidin-6-ylsulfonyl)benzoic acid] gave a melting point of 262 to 265 °C. Also, the IC50 in data set [1] was 10 to 25 µM. In addition, the IC50 in data set [2] was 10 to 25 µM.

For `CN1CCN(c2ccc(Nc3ncc4cc(S(=O)(=O)c5ccc(Cl)cc5)c(=O)n(C5CCCC5)c4n3)cc2)CC1` [Example 58, 2-(4-(4-methylpiperazin-1-yl)phenylamine)-6-(4-chlorophenylsulfonyl)-8-cyclopentylpyrido[2,3-d]pyrimidin-7(8H)-one], the concentration for half-maximal inhibition (IC50) in data set [1] lay within 1 to 10 µM; in data set [2], 10 to 25 µM.

As to `Cn1c(=O)c(S(=O)(=O)c2ccc(O)cc2)cc2cnc(Nc3ccc4[nH]ccc4c3)nc21` [Example 43, 2-(1H-indol-5-ylamino)-6-(4-hydroxyphenylsulfonyl)-8-methylpyrido[2,3-d]pyrimidin-7(8H)-one], the half-maximal inhibitory concentration (IC50) in data set [1] and in data set [2] was < 1 µM each time.

Take `Cn1c(=O)c(S(=O)(=O)c2ccc(F)c(Cl)c2)cc2cnc(Nc3ccc4[nH]ncc4c3)nc21` [Example 38, 2-(1H-indazol-5-ylamino)-6-(3-chloro-4-fluorophenylsulfonyl)-8-methylpyrido[2,3-d]pyrimidin-7(8H)-one]: the IC50 in data set [1] and in data set [2] was 10 to 25 µM each time.

In the case of `C[S+]([O-])c1ncc2cc(S(=O)(=O)c3ccc(Cl)cc3)c(=O)n(C3CCCC3)c2n1` (centres unmarked) [Example 59, 6-(4-chlorophenylsulfonyl)-8-cyclopentyl-2-(methylsulfinyl)pyrido[2,3-d]pyrimidin-7(8H)-one], the figures for the IC50 in data set [1] and in data set [2] were 1 to 10 µM and 10 to 25 µM, respectively.

`Cn1c(=O)c(S(=O)(=O)c2ccc(F)cc2F)cc2cnc(NCCN3CCOCC3)nc21` [Example 42, 6-(2,4-difluorophenylsulfonyl)-2-(2-morpholinoethylamino)-8-methylpyrido[2,3-d]pyrimidin-7(8H)-one]: the IC50 in data set [1] and in data set [2] was 50 to 100 µM in each case.

On to `C[S+]([O-])c1ncc2cc(S(=O)(=O)c3ccccc3)c(=O)n(C3CCCC3)c2n1` (centres unmarked) [Example 66, 8-cyclopentyl-2-(methylsulfinyl)-6-(phenylsulfonyl)pyrido[2,3-d]pyrimidin-7(8H)-one], for which the IC50 was 10 to 25 µM in data set [1] and 50 to 100 µM in data set [2].

Turning to `Cn1c(=O)c(S(=O)(=O)c2ccc(F)cc2F)cc2cnc(Nc3ccc4c(c3)CC(=O)N4)nc21` [Example 41, 6-(2,4-difluorophenylsulfonyl)-2-(2-oxoindolin-5-ylamino)-8-methylpyrido[2,3-d]pyrimidin-7(8H)-one], the IC50 in data set [1] and in data set [2] was 50 to 100 µM throughout.

Take `O=c1[nH]c2nc(Nc3ccc4[nH]ccc4c3)ncc2cc1S(=O)(=O)c1ccc(F)c(Cl)c1` [Example 46, 2-(1H-indol-5-ylamino)-6-(3-chloro-4-fluorophenylsulfonyl)pyrido[2,3-d]pyrimidin-7(8H)-one]: the figures for the half-inhibitory concentration (IC50) in data set [1] and in data set [2] were 10 to 25 µM and 50 to 100 µM, respectively.
